The test deals with T1, C-terminal His6-tagged, recombinant, human JAK2, amino acids 808-end (Homo sapiens, UniProt O60674).
T1 construct: His6 (C); purchased Upstate Biotechnology MA; host or cells: baculovirus in Sf21 cells
In words: JAK2 kinase Alphascreen assay (Method 1). Type of test: biochemical. The note with it: Alphascreen, 150 pM JAK2 enzyme, 5 mM ATP, 80 nM Tyk2 peptide, 60 minutes room temperature; read-out: IC50 Assay (Method 1). On the procedure:
To measure JAK2 kinase activity, a commercially available purified enzyme may be used. […] After incubation of the kinase with a biotinylated substrate and adenosine triphosphate (ATP) for 60 minutes at room temperature, the kinase reaction may be stopped by the addition of 30 mM ethylenediaminetetraacetic acid (EDTA). The reaction may be performed in 384 well microtitre plates and the reaction products may be detected with the addition of streptavidin coated Donor Beads and phosphotyrosine-specific antibodies coated Acceptor Beads using the EnVision Multilabel Plate Reader after an overnight incubation at room temperature. “Tween 20” is a registered trademark of ICI Americas, Inc.
(Alpha assays give light when donor and acceptor beads are brought close together.)

29 compounds from patent publication US20110201628A1, “HETEROCYCLIC JAK KINASE INHIBITORS” (priority 2008, published 2011) can be followed below.

T1 sequence (O60674 808-1132 limits assumed): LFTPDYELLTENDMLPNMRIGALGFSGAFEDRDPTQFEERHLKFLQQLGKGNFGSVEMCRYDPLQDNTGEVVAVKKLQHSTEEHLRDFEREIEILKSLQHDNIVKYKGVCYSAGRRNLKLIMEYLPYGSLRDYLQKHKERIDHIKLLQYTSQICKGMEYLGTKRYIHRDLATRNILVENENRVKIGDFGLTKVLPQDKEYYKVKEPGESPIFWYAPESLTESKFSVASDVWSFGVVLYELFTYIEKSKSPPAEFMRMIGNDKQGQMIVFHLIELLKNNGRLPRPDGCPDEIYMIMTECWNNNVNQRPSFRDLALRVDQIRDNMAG

The IC50 is the point on the concentration scale where inhibition reaches its midpoint. Consider `Cc1nc2c(Nc3cn(C)cn3)nc(NC(C)c3ncc(F)cn3)nc2s1` (single isomer, unassigned) [Example 7(b), N^5-[1-(5-Fluoropyrimidin-2-yl)ethyl]-2-methyl-N^7-(1-meth 1-1H-imidazol-4-yl)[1,3]thiazolo[5,4-d]pyrimidine-5,7-diamine], for which the IC50 is 21600 nM.
Next, `Cc1nc2c(Nc3cn(C)cn3)nc(N[C@@H](C)c3ncc(F)cn3)nc2s1` [Example 7, N^5-[(1S)-1-(5-Fluoropyrimidin-2-yl)ethyl]-2-methyl-N^7-(1-methyl-1H-imidazol-4-yl)[1,3]thiazolo[5,4-d]pyrimidine-5,7-diamine]: 1900 nM.
For `CC(Nc1nc(Nc2cn(C)cn2)c2cccnc2n1)c1ncc(F)cc1F` (single isomer, unassigned) [Example 12(b), N^2-[1-(3,5-Difluoropyridin-2-yl)ethyl]-N^4-(1-methyl-1H-imidazol-4-yl)pyrido[2,3-d]pyrimidine-2,4-diamine] the value was 470 nM; for `CC(Nc1nc(Nc2cn(C)cn2)c2cnn(C)c2n1)c1ncc(F)cn1` (single isomer, unassigned) [Example 11(a), N^6-[1-(5-Fluoropyrimidin-2-yl)ethyl]-1-methyl-N^4-(1-methyl-1H-imidazol-4-yl)-1H-pyrazolo[3,4-d]pyrimidine-4,6-diamine], 6400 nM.
Next, `CC(Nc1nc(Nc2cn(C)cn2)c2ccsc2n1)c1ncc(F)cn1` (single isomer, unassigned) [Example 1(b), N^2-[1-(5-Fluoropyrimidin-2-yl)ethyl]-N^4-(1-methyl-1H-imidazol-4-yl)thieno[2,3-d]pyrimidine-2,4-diamine]: under 3 nM.
With `Cc1ccc(S(=O)(=O)n2ccc3c(Nc4cn(C)cn4)nc(N[C@@H](C)c4ncc(F)cn4)nc32)cc1` [Example 3, N^2-[(1S)-1-(5-Fluoropyrimidin-2-yl)ethyl]-N^4-(1-methyl-1H-imidazol-4-yl)-7-[(4-methylphenyl)sulfonyl]-7H-pyrrolo[2,3-d]pyrimidine-2,4-diamine], the IC50 was 213 nM.
As for `C[C@H](Nc1nc2c(c(Nc3cn(C)cn3)n1)CCC2)c1ncc(F)cn1` [Example 8, N^2-[(1S)-1-(5-Fluoropyrimidin-2-yl)ethyl]-N^4-(1-methyl-1H-imidazol-4-yl)-6,7-dihydro-5H-cyclopenta[d]pyrimidine-2,4-diamine], the IC50 stood at 16 nM.
As to `COCC(Nc1nc(Nc2cn(C)cn2)c2cnn(C)c2n1)c1ncc(F)cc1F` (single isomer, unassigned) [Example 13(a)], the IC50 worked out at 3240 nM.
For `C[C@H](Nc1nc(Nc2cn(C)cn2)c2ccc(NC3CC3)nc2n1)c1ncc(F)cn1` [Example 36, N^7-Cyclopropyl-N^2-[(1S)-1-(5-fluoropyrimidin-2-yl)ethyl]-N^4-(1-methyl-1H-imidazol-4-yl)pyrido[2,3-d]pyrimidine-2,4,7-triamine] the value was 3 nM.
Next, `COc1ccc2nc(NC(C)c3ncc(F)cc3F)nc(Nc3cn(C)cn3)c2c1` (racemic) [Example 29, N^2-[1-(3,5-Difluoropyridin-2-yl)ethyl]-6-methoxy-N^4-(1-methyl-1H-imidazol-4-yl)quinazoline-2,4-diamine]: 500 nM; `C[C@H](Nc1nc(Nc2cn(C)cn2)c2ccc(Cl)nc2n1)c1ncc(F)cn1` [Example 42, 7-Chloro-N^2-[(1S)-1-(5-fluoropyrimidin-2-yl)ethyl]-N^4-(1-methyl-1H-imidazol-4-yl)pyrido[2,3-d]pyrimidine-2,4-diamine]: under 3 nM; `CC(Nc1nc(Nc2cn(C)cn2)c2ccccc2n1)c1ncc(F)cn1` (single isomer, unassigned) [Example 45(a), N^2-[1-(5-Fluoropyrimidin-2-yl)ethyl]-N^4-(1-methyl-1H-imidazol-4-yl)quinazoline-2,4-diamine]: 64 nM.
For the compound `CC(Nc1nc(Nc2cn(C)cn2)c2cnn(C)c2n1)c1ncc(F)cc1F` (single isomer, unassigned) [Example 14(a), N^6-[1-(3,5-Difluoropyridin-2-yl)ethyl]-1-methyl-N^4-(1-methyl-1H-imidazol-4-yl)-1H-pyrazolo[3,4-d]pyrimidine-4,6-diamine], the 50% inhibitory concentration (IC50) was determined as 5400 nM.
For `CC(Nc1nc(Nc2cn(C)cn2)c2ccsc2n1)c1ncc(F)cn1` (single isomer, unassigned) [Example 1(a), N^2-[1-(5-Fluoropyrimidin-2-yl)ethyl]-N^4-(1-methyl-1H-imidazol-4-yl)thieno[2,3-d]pyrimidine-2,4-diamine] the value was 28800 nM.
For `C[C@H](Nc1nc(Nc2cn(C)cn2)c2cnn(CCO)c2n1)c1ncc(F)cn1` [Example 15, 2-(6-{[(1S)-1-(5-Fluoropyrimidin-2-yl)ethyl]amino}-4-[(1-methyl-1H-imidazol-4-yl)amino]-1H-pyrazolo[3,4-d]pyrimidin-1-yl)ethanol] the value was 3 nM; for `CC(Nc1nc(Nc2cn(C)cn2)c2ccccc2n1)c1ncc(F)cn1` (single isomer, unassigned) [Example 45(b), N^2-[1-(5-Fluoropyrimidin-2-yl)ethyl]-N^4-(1-methyl-1H-imidazol-4-yl)quinazoline-2,4-diamine], 3 nM; for `CC(Nc1nc(Nc2cn(C)cn2)c2ccc(Cl)nc2n1)c1ncc(F)cc1F` (racemic) [Example 44, 7-Chloro-N^2-[1-(3,5-difluoropyridin-2-yl)ethyl]-N^4-(1-methyl-1H-imidazol-4-yl)pyrido[2,3-d]pyrimidine-2,4-diamine], 3 nM.
In the case of `CC(Nc1nc2c(c(Nc3cn(C)cn3)n1)CNCC2)c1ncc(F)cn1` (single isomer, unassigned) [17(a), N^2-[1-(5-Fluoropyrimidin-2-yl)ethyl]-N^4-(1-methyl-1H-imidazol-4-yl)-5,6,7,8-tetrahydropyrido[4,3-d]pyrimidine-2,4-diamine], the concentration for half-maximal inhibition (IC50) is 220 nM.
For `CC(Nc1nc2c(c(Nc3cn(C)cn3)n1)CNC2)c1ncc(F)cn1` (single isomer, unassigned) [Example 18(a), N^2-[1-(5-Fluoropyrimidin-2-yl)ethyl]-N^4-(1-methyl-1H-imidazol-4-yl)-6,7-dihydro-5H-pyrrolo[3,4-d]pyrimidine-2,4-diamine] the value was 4300 nM.
Next, `CC(Nc1nc(Nc2cn(C)cn2)c2ccc(O)nc2n1)c1ncc(F)cc1F` (racemic) [Example 35, 2-{[1-(3,5-Difluoropyridin-2-yl)ethyl]amino}-4-[(1-methyl-1H-imidazol-4-yl)amino]pyrido[2,3-d]pyrimidin-7-ol]: 3 nM; `CC(Nc1nc(Nc2cn(C)cn2)c2nccnc2n1)c1ncc(F)cn1` (single isomer, unassigned) [Example 10(b), N^2-[1-(5-Fluoropyrimidin-2-yl)ethyl]-N^4-(1-methyl-1H-imidazol-4-yl)pteridine-2,4-diamine]: 200 nM; `CC(Nc1nc(Nc2cn(C)cn2)c2nccnc2n1)c1ncc(F)cn1` (single isomer, unassigned) [Example 10(a), N^2-[1-(5-Fluoropyrimidin-2-yl)ethyl]-N^4-(1-methyl-1H-imidazol-4-yl)pteridine-2,4-diamine]: 6400 nM.
Next, `CC(Nc1nc2c(c(Nc3cn(C)cn3)n1)CCC2)c1ncc(F)cn1` (single isomer, unassigned) [Example 8(a), N^2-[1-(5-Fluoropyrimidin-2-yl)ethyl]-N^4-(1-methyl-1H-imidazol-4-yl)-6,7-dihydro-5H-cyclopenta[d]pyrimidine-2,4-diamine]: 20000 nM.
`CC(Nc1nc(Nc2cn(C)cn2)c2ccc(N3CCOCC3)nc2n1)c1ncc(F)cc1F` (single isomer, unassigned) [Example 40(a), N^2-[1-(3,5-Difluoropyridin-2-yl)ethyl]-N^4-(1-methyl-1H-imidazol-4-yl)-7-morpholin-4-ylpyrido[2,3-d]pyrimidine-2,4-diamine]: the IC50 was 490 nM.
For `C[C@H](Nc1nc(Nc2cn(C)cn2)c2[nH]ccc2n1)c1ncc(F)cn1` [Example 6, N^2-[(1S)-1-(5-Fluoropyrimidin-2-yl)ethyl]-N^4-(1-methyl-1H-imidazol-4-yl)-5H-pyrrolo[3,2-d]pyrimidine-2,4-diamine] the value was under 3 nM; for `CC(Nc1nc2c(c(Nc3cn(C)cn3)n1)CNC2)c1ncc(F)cn1` (single isomer, unassigned) [Example 18(b), N^2-[1-(5-Fluoropyrimidin-2-yl)ethyl]-N^4-(1-methyl-1H-imidazol-4-yl)-6,7-dihydro-5H-pyrrolo[3,4-d]pyrimidine-2,4-diamine], 450 nM.
Next, `CC(Nc1nc(Nc2cn(C)cn2)c2cc(F)cnc2n1)c1ncc(F)cn1` (single isomer, unassigned) [Example 38(a), 6-Fluoro-N^2-[1-(5-fluoropyrimidin-2-yl)ethyl]-N^4-(1-methyl-1H-imidazol-4-yl)pyrido[2,3-d]pyrimidine-2,4-diamine]: 100 nM; `C[C@H](Nc1nc(Nc2cn(C)cn2)c2ccccc2n1)c1ncc(F)cn1` [Example 45, N^2-[(1S)-1-(5-Fluoropyrimidin-2-yl)ethyl]-N^4-(1-methyl-1H-imidazol-4-yl)quinazoline-2,4-diamine]: under 3 nM; `CC(Nc1nc(Nc2cn(C)cn2)c2cccnc2n1)c1ncc(F)cc1F` (single isomer, unassigned) [Example 12(a), N^2-[1-(3,5-Difluoropyridin-2-yl)ethyl]-N^4-(1-methyl-1H-imidazol-4-yl)pyrido[2,3-d]pyrimidine-2,4-diamine]: under 3 nM.
